The record followed here is ChEMBL document CHEMBL1201862, “PubChem BioAssay data set” (2004).

Structures are written as SMILES.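 96-well plates; 48 h exposure; 5 concentrations. Endpoints by linear interpolation between flanking doses. Not reached: highest tested concentration assigned. At the GI50, growth is halved.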 Activity calls are given as the source filed them. Cut-off read from the data, not from the text of the source: active = GI50 up to about 1.1 µM and inactive = higher. A value given as a limit tells only on which side of the number the result lay.

Assay in all cases: NCI anticancer screen, dose series, 48 h
Assay [1] has as its system SNB-19.
Assay [2] deals with SF-268.
Assay [3] concerns M14.
Assay [4] deals with HCT-15.
The test system of assay [5] is SK-MEL-2.
For assay [6], the system named is MDA-N.
Assay [7] concerns NCI-H226.
The subject of assay [8] is SK-MEL-5.
In assay [9] the test system is SW-620.
The subject of assay [10] is PC-3.
Assay [11] deals with HL-60.
Assay [12] has as its system NCI-H23.
Assay [13] deals with OVCAR-3.
For assay [14], the system named is SK-MEL-28.
Assay [15] deals with A549.
The subject of assay [16] is MOLT-4.
The test system of assay [17] is NCI/ADR-RES.
The subject of assay [18] is TK-10.
In assay [19] the test system is CCRF-CEM.

Turning to `CC(=O)OC(=C(C#N)C#N)c1nccnc1C(=O)O`, the GI50 in assay [1] was > 100 µM (inactive); in [2], > 100 µM (inactive); in [3], > 100 µM (inactive); in assay [4] it was more than 100 µM; in assay [5], > 100 µM (inactive); in [6], > 100 µM (inactive). Further, the GI50 in assay [7], in assay [8], in assay [9], in [10], in assay [11] and in [12] was > 100 µM (inactive) each time. Also, the GI50 in assay [13], in [14], in [15], in assay [16] and in [17] was > 100 µM (inactive) throughout.

Consider `COC(=O)c1ccccc1/C=C1\Cc2cc3c(cc2C1=O)CCC3`, for which the GI50 in [1] is > 100 µM (inactive); in assay [2] it was 68.5 µM (inactive); in [3], 24 µM (inactive); in [4] it was 29.8 µM; in assay [5] it was 20.7 µM (inactive); in assay [6], 3.78 µM (inactive). Also, the GI50 in [7] was > 100 µM (inactive); in assay [8] it was > 100 µM (inactive); in assay [9] it was > 100 µM (inactive); in [10] it was 8.51 µM (inactive); in [11], > 100 µM (inactive); in assay [12], > 100 µM (inactive). Further, the GI50 in [13] was > 100 µM (inactive); in assay [18], 59.8 µM (inactive); in assay [14], > 100 µM (inactive); in assay [15], > 100 µM (inactive); in assay [16], > 100 µM (inactive); in [17], > 100 µM (inactive).

`O=C(/N=C1/OC(CN2CCOCC2)CN1C(=O)Nc1ccccc1)Nc1ccccc1` (stereo not drawn): the GI50 in assay [1] was > 100 µM (inactive); in assay [19] it was > 100 µM (inactive); in [2] it was > 100 µM (inactive); in assay [3] it was > 100 µM (inactive); in assay [4] it was more than 100 µM; in [5] it was > 100 µM (inactive). Also, the GI50 in assay [6], in [7], in assay [8], in [9], in assay [10] and in [11] was > 100 µM (inactive) throughout. Also, the GI50 in [12], in assay [18], in assay [14], in assay [15], in [16] and in assay [17] was > 100 µM (inactive) each time.

With `COC(=O)N1N=C(c2ccccc2)C1c1ccccc1` (stereo not drawn), the GI50 in assay [1] is 29.5 µM (inactive); in assay [19], 31.9 µM (inactive); in assay [2], 62.7 µM (inactive); in [3], 34.5 µM (inactive); in assay [4], 39.5 µM; in [5], 34.5 µM (inactive). The GI50 in assay [6] is 31.1 µM (inactive); in assay [7], 21.8 µM (inactive); in assay [9] it was 48.6 µM (inactive); in assay [10] it was 26.9 µM (inactive); in assay [11], 27.2 µM (inactive); in assay [12], 24.8 µM (inactive). The GI50 is 37.9 µM (inactive) in assay [13]; 70.1 µM (inactive) in assay [18]; 39.7 µM (inactive) in [14]; 31 µM (inactive) in [15]; 28.1 µM (inactive) in assay [16]; 23.2 µM (inactive) in [17].

`CC(=O)NC1C(OCc2ccccc2)OC(CO)C(O)C1OCC(=O)NC(C(=O)NC(CCC(=O)NCCCCCC(=O)Nc1ccc2c(c1)CN1C(=O)c3ccccc3C1=N2)C(N)=O)C(C)C` (stereo not drawn): the GI50 in assay [1] was 20.9 µM (inactive); in [19], > 100 µM (inactive); in assay [2], 19.7 µM (inactive); in assay [3], 40.6 µM (inactive); in [4], 52.2 µM; in assay [5], 27.1 µM (inactive). Also, the GI50 in assay [6] is 62.7 µM (inactive); in assay [8] it was 21.4 µM (inactive); in [9] it was 50.6 µM (inactive); in assay [10], 28.5 µM (inactive); in [11], > 100 µM (inactive); in [12], 35.3 µM (inactive). Also, the GI50 is 67.6 µM (inactive) in assay [13]; 18.3 µM (inactive) in assay [18]; 20.8 µM (inactive) in [14]; 41.4 µM (inactive) in [15]; > 100 µM (inactive) in assay [16]; 45.8 µM (inactive) in assay [17].

With `CC1(C)OC(=O)C(C)(C)C(=O)O1`, the GI50 in assay [1] was > 100 µM (inactive); in assay [19], > 100 µM (inactive); in assay [2], > 100 µM (inactive); in assay [3], > 100 µM (inactive); in assay [4] it was more than 100 µM; in assay [5] it was > 100 µM (inactive). Further, the GI50 is > 100 µM (inactive) in assay [6]; > 100 µM (inactive) in assay [7]; > 100 µM (inactive) in assay [8]; > 100 µM (inactive) in assay [9]; > 100 µM (inactive) in assay [10]; > 10 µM (inactive) in assay [11]. Also, the GI50 in assay [12], in assay [18], in assay [14], in assay [15], in assay [16] and in assay [17] was > 100 µM (inactive) throughout.

On to `CCC(C(=O)c1cccs1)C(O)(C(F)(F)F)C(F)(F)F` (stereo not drawn), for which the GI50 is > 100 µM (inactive) in assay [1]; > 100 µM (inactive) in assay [2]; > 100 µM (inactive) in assay [3]; more than 100 µM in assay [4]; > 100 µM (inactive) in assay [5]; > 100 µM (inactive) in assay [6]. Further, the GI50 is > 100 µM (inactive) in [7]; > 100 µM (inactive) in assay [8]; > 100 µM (inactive) in assay [9]; > 100 µM (inactive) in [10]; 3.39 µM (inactive) in assay [11]; > 100 µM (inactive) in assay [12]. The GI50 in assay [13], in [18], in assay [14], in assay [15], in assay [16] and in assay [17] was > 100 µM (inactive) throughout.

As to `CC[C@]12C=CCN3CC[C@@]4(c5cc(Br)c(OC)cc5N(C)[C@H]4[C@@](O)(C(=O)NC(Cc4c[nH]c5ccccc45)C(=O)OC)[C@@H]1O)[C@@H]32` (stereo partly drawn), the GI50 in assay [1] is 33.2 µM (inactive); in assay [19] it was 5.62 µM (inactive); in assay [2], 6.15 µM (inactive); in [3] it was 20.5 µM (inactive); in assay [4], 5.74 µM; in [5] it was 25.2 µM (inactive). In addition, the GI50 in assay [6] was 23.3 µM (inactive); in assay [7], 10.8 µM (inactive); in [8], 7.31 µM (inactive); in [9] it was 89.7 µM (inactive); in [10], 8.2 µM (inactive); in assay [11], 13.5 µM (inactive). In addition, the GI50 in assay [12] is 45.1 µM (inactive); in assay [13] it was 9.16 µM (inactive); in assay [14], 92.9 µM (inactive); in assay [15], 11.8 µM (inactive); in [16], 2.87 µM (inactive); in assay [17], 7.91 µM (inactive).
